Assay results as given in ChEMBL document CHEMBL1201862, “PubChem BioAssay data set” (2004).
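How tested: cells in 96-well plates exposed to compound for 48 hours at five concentrations. GI50 = concentration required for 50% inhibition of growth.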 The source made the active and inactive calls. Cut-off read from the data, not from the text of the source: active = GI50 up to about 1.1 µM and inactive = higher.

Key:
Assay in all cases: NCI-60 cell line screen, 48 h
OVCAR-8 = tested on: OVCAR-8
A498 = tested on: A498
COLO 205 = tested on: COLO 205
PC-3 = tested on: PC-3
DU-145 = tested on: DU-145
TK-10 = tested on: TK-10
SF-539 = tested on: SF-539
MOLT-4 = tested on: MOLT-4
SNB-75 = tested on: SNB-75
NCI-H522 = tested on: NCI-H522
HT-29 = tested on: HT-29
NCI/ADR-RES = tested on: NCI/ADR-RES
MCF7 = tested on: MCF7
CCRF-CEM = tested on: CCRF-CEM
786-0 = tested on: 786-0
HOP-62 = tested on: HOP-62
SF-295 = tested on: SF-295
OVCAR-3 = tested on: OVCAR-3
MDA-MB-231 = tested on: MDA-MB-231
SK-MEL-2 = tested on: SK-MEL-2

Measured: GI50

Cc1ccc(NC(S)=Nc2c(C)n(C)n(-c3ccccc3)c2=O)cc1
inactive: OVCAR-8 > 100 µM | A498 > 100 µM | COLO 205 > 100 µM | PC-3 > 100 µM | DU-145 > 100 µM | TK-10 > 100 µM | SF-539 > 100 µM | MOLT-4 87.9 µM | SNB-75 > 100 µM | NCI-H522 > 100 µM | HT-29 > 100 µM | NCI/ADR-RES > 100 µM | MCF7 > 100 µM | CCRF-CEM > 100 µM | 786-0 > 100 µM | HOP-62 > 100 µM | SF-295 > 100 µM | OVCAR-3 > 100 µM | MDA-MB-231 > 100 µM

O=C(CC(C(=O)c1ccsc1)c1cccs1)c1ccsc1 (stereo not drawn)
inactive: OVCAR-8 60.5 µM | A498 81.8 µM | COLO 205 45.1 µM | PC-3 28.5 µM | DU-145 75.7 µM | TK-10 > 100 µM | MOLT-4 28.5 µM | SNB-75 27.4 µM | SK-MEL-2 94 µM | HT-29 63.1 µM | NCI/ADR-RES 17.5 µM | MCF7 39 µM | CCRF-CEM 15.2 µM | 786-0 > 100 µM | HOP-62 > 100 µM | SF-295 43.7 µM | MDA-MB-231 92 µM

O=C1OCCC[C@H]2O[C@@H](COCc3ccccc3)C[C@@H]12
inactive: OVCAR-8 > 100 µM | A498 > 100 µM | COLO 205 > 100 µM | PC-3 > 100 µM | DU-145 > 100 µM | TK-10 > 100 µM | SF-539 > 100 µM | MOLT-4 > 100 µM | SNB-75 > 100 µM | SK-MEL-2 > 100 µM | HT-29 > 100 µM | NCI/ADR-RES > 100 µM | MCF7 > 100 µM | CCRF-CEM > 100 µM | 786-0 > 100 µM | HOP-62 > 100 µM | SF-295 > 100 µM | OVCAR-3 > 100 µM | MDA-MB-231 > 100 µM

CO[C@]12CC(=O)C3(C(C[C@H]4CC5CC[C@H]6C[C@@H](OC(C)=O)CC[C@]6(OC(C)=O)C5C[C@@]43C)C1)C1C[C@H]3[C@@H]4CC[C@H]5C[C@@H](OC(C)=O)CC[C@]5(OC(C)=O)[C@H]4CC[C@]3(C)C12 (stereo partly drawn)
inactive: OVCAR-8 46 µM | A498 > 100 µM | COLO 205 40.5 µM | PC-3 50.8 µM | DU-145 70.3 µM | TK-10 > 100 µM | SF-539 > 100 µM | MOLT-4 51.1 µM | SNB-75 > 100 µM | SK-MEL-2 > 100 µM | HT-29 82.4 µM | NCI/ADR-RES 43.6 µM | MCF7 80.5 µM | CCRF-CEM 24.5 µM | 786-0 64.4 µM | HOP-62 > 100 µM | SF-295 61.5 µM | OVCAR-3 > 100 µM | MDA-MB-231 > 100 µM

CC1CC(NN(C)C)C2(C(N)=O)C(N)=NC(=O)C12C#N (stereo not drawn)
inactive: OVCAR-8 > 100 µM | A498 > 100 µM | COLO 205 > 100 µM | PC-3 > 100 µM | DU-145 > 100 µM | TK-10 > 100 µM | SF-539 > 100 µM | MOLT-4 > 100 µM | SNB-75 10 µM | SK-MEL-2 > 100 µM | NCI-H522 > 100 µM | HT-29 > 100 µM | NCI/ADR-RES > 100 µM | MCF7 > 100 µM | CCRF-CEM > 100 µM | 786-0 > 100 µM | HOP-62 > 100 µM | SF-295 > 100 µM | MDA-MB-231 > 100 µM

CC1CC[C@@]2(OC1)OC1C[C@H]3[C@@H]4CCC5CC(O)CC[C@]5(C)[C@H]4C/C(=N\N(C)C)[C@]3(C)C1[C@@H]2C (stereo partly drawn)
inactive: A498 23 µM | COLO 205 19.9 µM | PC-3 25.6 µM | DU-145 21.8 µM | TK-10 29.2 µM | SF-539 23.8 µM | MOLT-4 24.7 µM | SK-MEL-2 20.5 µM | HT-29 19.6 µM | NCI/ADR-RES 19.5 µM | MCF7 34.9 µM | CCRF-CEM 37.8 µM | 786-0 20.3 µM | HOP-62 16.7 µM | OVCAR-3 17.9 µM | MDA-MB-231 19.2 µM

CCOC(=O)c1sc2c(c1OC(=O)c1cc(OC)c(OC)c(OC)c1)c(=O)n(-c1ccccc1)c(=S)n2-c1ccccc1
inactive: OVCAR-8 74.8 µM | A498 > 100 µM | COLO 205 > 100 µM | PC-3 63.5 µM | DU-145 > 100 µM | TK-10 > 100 µM | SF-539 > 100 µM | MOLT-4 28.4 µM | SNB-75 > 100 µM | NCI-H522 4.81 µM | HT-29 98.9 µM | NCI/ADR-RES 75.3 µM | MCF7 > 100 µM | CCRF-CEM 17.5 µM | 786-0 84.1 µM | HOP-62 > 100 µM | SF-295 > 100 µM | OVCAR-3 87.7 µM | MDA-MB-231 56.6 µM

CCOc1ccc2c(c1)NC(=O)C(C1OC(c3ccccc3)=CC1=O)S2 (stereo not drawn)
inactive: OVCAR-8 22.5 µM | A498 > 100 µM | COLO 205 14 µM | PC-3 13.8 µM | DU-145 38.5 µM | TK-10 43.7 µM | SF-539 25.1 µM | SK-MEL-2 40.1 µM | NCI-H522 10.4 µM | HT-29 20.2 µM | NCI/ADR-RES 24.9 µM | MCF7 16.2 µM | CCRF-CEM 1.9 µM | 786-0 33.3 µM | HOP-62 53.2 µM | SF-295 27 µM | OVCAR-3 20.1 µM | MDA-MB-231 25.1 µM

CC1(C)N=[N+]([O-])C1(C)C
inactive: OVCAR-8 > 100 µM | A498 > 100 µM | COLO 205 > 100 µM | PC-3 > 100 µM | DU-145 > 100 µM | TK-10 > 100 µM | SF-539 > 100 µM | MOLT-4 > 100 µM | SNB-75 > 100 µM | SK-MEL-2 > 100 µM | NCI-H522 > 100 µM | HT-29 > 100 µM | NCI/ADR-RES > 100 µM | MCF7 > 100 µM | CCRF-CEM > 100 µM | 786-0 > 100 µM | OVCAR-3 > 100 µM | MDA-MB-231 > 100 µM

NCCC(N)C(=O)O (stereo not drawn)
inactive: OVCAR-8 > 100 µM | A498 > 100 µM | COLO 205 > 100 µM | PC-3 > 100 µM | DU-145 > 100 µM | TK-10 > 100 µM | SF-539 > 100 µM | MOLT-4 > 100 µM | SK-MEL-2 > 100 µM | NCI-H522 > 100 µM | HT-29 > 100 µM | NCI/ADR-RES > 100 µM | MCF7 > 100 µM | CCRF-CEM > 100 µM | 786-0 > 100 µM | HOP-62 > 100 µM | SF-295 > 100 µM | OVCAR-3 > 100 µM | MDA-MB-231 > 100 µM

CC(C)(C)c1cc(-c2ccc(-c3cc(C(C)(C)C)c(O)c(C(C)(C)C)c3)cc2)cc(C(C)(C)C)c1O
inactive: OVCAR-8 > 100 µM | A498 > 100 µM | COLO 205 > 100 µM | PC-3 > 100 µM | DU-145 > 100 µM | TK-10 > 100 µM | SF-539 > 100 µM | MOLT-4 > 100 µM | SNB-75 > 100 µM | SK-MEL-2 > 100 µM | NCI-H522 > 100 µM | HT-29 > 100 µM | NCI/ADR-RES > 100 µM | MCF7 > 100 µM | 786-0 > 100 µM | HOP-62 > 100 µM | SF-295 > 100 µM | OVCAR-3 > 100 µM | MDA-MB-231 > 100 µM

CN(C)Cc1cc(/N=N/c2ccc(Cl)c(Cl)c2)ccc1O
inactive: OVCAR-8 12.9 µM | A498 11.1 µM | COLO 205 2.84 µM | PC-3 11.6 µM | DU-145 4 µM | TK-10 10.9 µM | SF-539 18.5 µM | MOLT-4 6.21 µM | SNB-75 7.13 µM | NCI-H522 5.41 µM | HT-29 6.53 µM | NCI/ADR-RES 7.46 µM | MCF7 4.46 µM | CCRF-CEM 4.43 µM | 786-0 11.5 µM | HOP-62 2.72 µM | SF-295 17.8 µM | OVCAR-3 6.34 µM | MDA-MB-231 5.15 µM

CCOC(=O)C1=C(C)NC(=O)NC1c1ccc(N(CCCl)CCCl)cc1Cl (stereo not drawn)
inactive: OVCAR-8 12.9 µM | A498 15.9 µM | COLO 205 18.6 µM | PC-3 15.2 µM | DU-145 18.2 µM | TK-10 18.3 µM | SF-539 17.2 µM | SNB-75 14.9 µM | SK-MEL-2 16.3 µM | NCI-H522 13.6 µM | HT-29 16 µM | NCI/ADR-RES 16.7 µM | MCF7 13.6 µM | 786-0 15.8 µM | HOP-62 15.2 µM | SF-295 15.8 µM | OVCAR-3 15.5 µM | MDA-MB-231 13.6 µM

N#Cc1c(N)nc2[nH]nc(N)c2c1-c1ccccc1
inactive: OVCAR-8 12.5 µM | A498 1.61 µM | COLO 205 5.65 µM | PC-3 5.13 µM | DU-145 8.11 µM | TK-10 5.6 µM | SF-539 7.16 µM | MOLT-4 4.04 µM | SK-MEL-2 3.4 µM | NCI-H522 3.72 µM | HT-29 12.2 µM | NCI/ADR-RES 15 µM | MCF7 4.59 µM | CCRF-CEM 16.4 µM | 786-0 16.8 µM | HOP-62 27.5 µM | SF-295 6.04 µM | OVCAR-3 3.72 µM | MDA-MB-231 4.48 µM
